Results on seven compounds are retold here after patent US8410302B2, “Methoxyimino compounds and fungicide composition comprising same” (Kyung Nong Corporation, priority 2007, dated 2013).

For one test, the system named is Phytophthora infestans. Nature of the test: whole plant or invertebrate. The format is in vivo. The settings on record: Phytophthora infestans, in Solanum lycopersicum, read-out: TLB control value (C.V.).
In a further test the test system is Botrytis cinerae. Nature of the test: Fungicidal activity against cucumber gray mold rot (CGM) disease, control value. The format is in vivo. The following applies: Botrytis, read-out: CGM control value (C.V.).
A further test concerns Rhizoctonia solani AG-1. In words: Fungicidal activity against rice sheath blight (RSB) disease, control value. The settings on record: Rhizoctonia solani, AG1, in Oryza sativa, read-out: RSB control value (C.V.).
The test system of test [1] is Pyricularia oryzae Carvara KA301. Nature of the test: whole plant or invertebrate. The format is in vivo. The settings on record: Pyricularia oryzae, read-out: RCB control value (C.V.).
A further test deals with Erysiphae graminis. Nature of the test: Fungicidal activity against barley powdery mildew (BPM) disease, control value. The format is in vivo. The following applies: 168 h, read-out: BPM control value (C.V.).
In another test the test system is Puccinia recondita. In words: Fungicidal activity against wheat leaf rust (WLR) disease, control value. The format is in vivo. The settings on record: Puccinia recondita, read-out: WLR control value (C.V.).

For the compound `CNC(=O)/C(=N/OC)c1ccccc1COc1ccc(C=C(Br)Br)cc1Cl` [Example 64, (E)-2-(2-((4-(2,2-dibromovinyl)-2-chlorophenoxy)methyl)phenyl)-2-methoxyimino-N-methylacetamide], the pest or weed control at 2 ppm in the test with Phytophthora infestans was 99%; with Rhizoctonia solani AG-1, 95%; in test [1] it was 100%; in the test with Erysiphae graminis, 97%; in the test with Puccinia recondita, 100%. For the same compound, the pest or weed control at 10 ppm (in the test on Phytophthora infestans; in the test on Rhizoctonia solani AG-1; in test [1]; in the test with Erysiphae graminis; in the test on Puccinia recondita) was 100% throughout. The pest or weed control at 50 ppm with Phytophthora infestans amounted to 100%; in the test with Botrytis cinerae, 40%; in the test on Rhizoctonia solani AG-1 it was 100%; in test [1] it was 100%; in the test on Erysiphae graminis it was 100%; with Puccinia recondita it was 100%. The pest or weed control at 100 ppm is 100% in the test with Phytophthora infestans; 80% in the test on Botrytis cinerae; 100% in the test with Rhizoctonia solani AG-1; 100% in test [1]; 100% in the test with Erysiphae graminis; 100% in the test on Puccinia recondita.

As for `CO/N=C(/C(=O)OC)c1ccccc1COc1ccc(C=C(Br)Br)cc1C` [Example 65, methyl-(E)-2-(2-((4-(2,2-dibromovinyl)-2-methylphenoxy)methyl)phenyl)-2-methoxyiminoacetate], the pest or weed control at 2 ppm in the test with Phytophthora infestans amounted to 50%; in the test with Rhizoctonia solani AG-1, 97%; in test [1], 100%; in the test with Erysiphae graminis, 60%; in the test with Puccinia recondita, 100%. Further, the pest or weed control at 10 ppm in the test on Phytophthora infestans is 80%; in the test with Rhizoctonia solani AG-1, 100%; in test [1] it was 100%; in the test with Erysiphae graminis, 95%; in the test with Puccinia recondita, 100%. For the same compound, the pest or weed control at 50 ppm (in the test with Phytophthora infestans; with Rhizoctonia solani AG-1; in test [1]; with Erysiphae graminis; with Puccinia recondita) was 100% throughout. The pest or weed control at 100 ppm in the test with Phytophthora infestans is 100%; in the test on Botrytis cinerae, 35%; in the test with Rhizoctonia solani AG-1, 100%; in test [1] it was 100%; in the test with Erysiphae graminis it was 100%; in the test with Puccinia recondita, 100%.

For `CNC(=O)/C(=N/OC)c1ccccc1COc1ccc(C=C(Br)Br)cc1C` [Example 66, (E)-2-(2-((4-(2,2-dibromovinyl)-2-methylphenoxy)methyl)phenyl)-2-methoxyimino-N-methylacetamide], the pest or weed control at 2 ppm in the test on Phytophthora infestans came out at 75%; in the test with Rhizoctonia solani AG-1 it was 65%; in test [1] it was 60%; in the test with Erysiphae graminis it was 97%; in the test on Puccinia recondita, 95%. Further, the pest or weed control at 10 ppm in the test with Phytophthora infestans was 90%; in the test on Rhizoctonia solani AG-1, 98%; in test [1], 90%; in the test on Erysiphae graminis, 100%; with Puccinia recondita, 100%. For the same compound, the pest or weed control at 50 ppm with Phytophthora infestans is 98%; in the test on Rhizoctonia solani AG-1 it was 100%; in test [1], 100%; in the test with Erysiphae graminis, 100%; in the test with Puccinia recondita, 100%. The pest or weed control at 100 ppm with Phytophthora infestans turned out to be 100%; with Botrytis cinerae, 45%; in the test with Rhizoctonia solani AG-1 it was 100%; in test [1], 100%; in the test with Erysiphae graminis, 100%; in the test with Puccinia recondita, 100%.

Consider `CO/N=C(/C(=O)OC)c1ccccc1COc1cccc(C=C(Br)Br)c1Cl` [Example 67, methyl-(E)-2-(2-((3-(2,2-dibromovinyl)-2-chlorophenoxy)methyl)phenyl)-2-methoxyiminoacetate], for which the pest or weed control at 2 ppm in the test on Phytophthora infestans stood at 99%; in the test on Rhizoctonia solani AG-1 it was 100%; in test [1] it was 100%; in the test on Erysiphae graminis, 100%; in the test with Puccinia recondita, 100%. The pest or weed control at 10 ppm (in the test with Phytophthora infestans; with Rhizoctonia solani AG-1; in test [1]; in the test on Erysiphae graminis; in the test on Puccinia recondita) was 100% throughout. The pest or weed control at 50 ppm in the test on Phytophthora infestans stood at 100%; in the test on Botrytis cinerae it was 40%; in the test with Rhizoctonia solani AG-1 it was 100%; in test [1] it was 100%; with Erysiphae graminis it was 100%; in the test on Puccinia recondita it was 100%. Moreover, the pest or weed control at 100 ppm came to 100% with Phytophthora infestans; 85% in the test on Botrytis cinerae; 100% with Rhizoctonia solani AG-1; 100% in test [1]; 100% in the test on Erysiphae graminis; 100% in the test on Puccinia recondita.

In the case of `CNC(=O)/C(=N/OC)c1ccccc1COc1cccc(C=C(Br)Br)c1Cl` [Example 68, (E)-2-(2-((3-(2,2-dibromovinyl)-2-chlorophenoxy)methyl)phenyl)-2-methoxyimino-N-methylacetamide], the pest or weed control at 2 ppm (with Phytophthora infestans; in the test with Rhizoctonia solani AG-1; in test [1]; with Erysiphae graminis; in the test with Puccinia recondita) was 100% each time. Besides, the pest or weed control at 10 ppm (with Phytophthora infestans; in the test with Rhizoctonia solani AG-1; in test [1]; in the test on Erysiphae graminis; in the test on Puccinia recondita) was 100% in each case. Besides, the pest or weed control at 50 ppm in the test with Phytophthora infestans turned out to be 100%; in the test on Botrytis cinerae it was 20%; in the test on Rhizoctonia solani AG-1, 100%; in test [1] it was 100%; in the test with Erysiphae graminis, 100%; in the test on Puccinia recondita, 100%. Moreover, the pest or weed control at 100 ppm worked out at 100% with Phytophthora infestans; 70% in the test on Botrytis cinerae; 100% with Rhizoctonia solani AG-1; 100% in test [1]; 100% in the test with Erysiphae graminis; 100% in the test with Puccinia recondita.

As for `CO/N=C(/C(=O)OC)c1ccccc1COc1ccc(C)cc1C=C(Br)Br` [Example 69, methyl-(E)-2-(2-((2-(2,2-dibromovinyl)-4-methylphenoxy)methyl)phenyl)-2-methoxyiminoacetate], the pest or weed control at 2 ppm (in the test on Phytophthora infestans; in the test on Rhizoctonia solani AG-1; in test [1]; in the test on Erysiphae graminis; with Puccinia recondita) was 100% in each case. For the same compound, the pest or weed control at 10 ppm (with Phytophthora infestans; in the test with Rhizoctonia solani AG-1; in test [1]; in the test on Erysiphae graminis; in the test with Puccinia recondita) was 100% in each case. Also, the pest or weed control at 50 ppm (with Phytophthora infestans; in the test with Rhizoctonia solani AG-1; in test [1]; in the test with Erysiphae graminis; with Puccinia recondita) was 100% each time. Besides, the pest or weed control at 100 ppm in the test on Phytophthora infestans is 100%; in the test on Botrytis cinerae, 60%; in the test on Rhizoctonia solani AG-1, 100%; in test [1], 100%; in the test with Erysiphae graminis, 100%; in the test with Puccinia recondita, 100%.

Turning to `CNC(=O)/C(=N/OC)c1ccccc1COc1ccc(C)cc1C=C(Br)Br` [Example 70, (E)-2-(2-((2-(2,2-dibromovinyl)-4-methylphenoxy)methyl)phenyl)-2-methoxyimino-N-methylacetamide], the pest or weed control at 10 ppm in the test with Phytophthora infestans is 35%; with Rhizoctonia solani AG-1 it was 100%; in test [1] it was 100%; in the test with Erysiphae graminis it was 100%; in the test with Puccinia recondita, 100%. Moreover, the pest or weed control at 50 ppm came out at 90% in the test on Phytophthora infestans; 100% with Rhizoctonia solani AG-1; 100% in test [1]; 100% with Erysiphae graminis; 100% in the test on Puccinia recondita. Besides, the pest or weed control at 100 ppm with Phytophthora infestans came out at 100%; with Botrytis cinerae, 50%; in the test with Rhizoctonia solani AG-1, 100%; in test [1], 100%; in the test with Erysiphae graminis, 100%; in the test with Puccinia recondita, 100%. Besides, the pest or weed control at 2 ppm (in the test with Rhizoctonia solani AG-1; in test [1]; with Erysiphae graminis; in the test on Puccinia recondita) was 100% throughout.
